Experimental data: patent US20230085307A1, “PYRIDAZINONE COMPOUND AND HERBICIDE” (NISSAN CHEMICAL CORPORATION, priority 2019, published 2023)

Experiments:
redroot pigweed [1] = assay: Test Example 5: herbicidal effect by foliage application, plastic box (Table 20, symbol N); type: in vivo, redroot pigweed (Amaranthus retroflexus); settings: 320 g/ha, foliage application after 14-day growth, evaluated three weeks after application
Summary of the method: (§1)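 Sow seeds spot-wise in sterilized diluvial soil; cover with ~1.5 cm soil. Grow 14 days in greenhouse, 25° C. to 30° C. Spray foliage with emulsion diluted to predetermined amount. Rate effect after 3 weeks.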

windgrass [2] = assay: Test Example 5: herbicidal effect by foliage application, plastic box (Table 20, symbol L); type: in vivo, windgrass (Apera spica-venti); settings: 320 g/ha, foliage application after 14-day growth, evaluated three weeks after application
Summary of the method: as §1

late watergrass = assay: Test Example 1: herbicidal activity, application before weed generation under submerged conditions (Table 16, symbol A); type: in vivo, late watergrass (Echinochloa oryzicola); settings: amount of applied herbicide 320 g/ha
Summary of the method: (§2)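 Emulsion formulation, water-diluted to set dose, was put onto the flooded surface (4 cm depth, alluvial soil) the same day weeds were sown and 2.5-leaf rice transplanted. After 3 weeks at 25-30 °C under glass, each species was rated 0 (≤5% kill) to 5 (≥90% kill).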

lambsquarters [3] = assay: Test Example 5: herbicidal effect by foliage application, plastic box (Table 20, symbol O); type: in vivo, lambsquarters (Chenopodium album); settings: 320 g/ha, foliage application after 14-day growth, evaluated three weeks after application
Summary of the method: as §1

wild oat [4] = assay: Test Example 5: herbicidal effect by foliage application, plastic box (Table 20, symbol I); type: in vivo, wild oat (Avena fatua); settings: 320 g/ha, foliage application after 14-day growth, evaluated three weeks after application
Summary of the method: as §1

blackgrass [5] = assay: Test Example 5: herbicidal effect by foliage application, plastic box (Table 20, symbol J); type: in vivo, blackgrass (Alopecurus myosuroides); settings: 320 g/ha, foliage application after 14-day growth, evaluated three weeks after application
Summary of the method: as §1

southern crabgrass [6] = assay: Test Example 5: herbicidal effect by foliage application, plastic box (Table 20, symbol F); type: in vivo, southern crabgrass (Digitaria ciliaris); settings: 320 g/ha, foliage application after 14-day growth, evaluated three weeks after application
Summary of the method: as §1

barnyard grass [7] = assay: Test Example 5: herbicidal effect by foliage application, plastic box (Table 20, symbol H); type: in vivo, barnyard grass (Echinochloa crus-galli); settings: 320 g/ha, foliage application after 14-day growth, evaluated three weeks after application
Summary of the method: as §1

green foxtail [8] = assay: Test Example 5: herbicidal effect by foliage application, plastic box (Table 20, symbol G); type: in vivo, green foxtail (Setaria viridis); settings: 320 g/ha, foliage application after 14-day growth, evaluated three weeks after application
Summary of the method: as §1

lambsquarters [9] = assay: Test Example 4: herbicidal effect by soil treatment (Table 19, symbol O); type: in vivo, lambsquarters (Chenopodium album); settings: amount of applied herbicide 320 g/ha
Summary of the method: (§3)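 Applied as a water-diluted emulsion, the compound was sprayed onto soil covering newly sown seeds. Evaluation came three weeks after application, in a greenhouse held at 25° C. to 30° C.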

oval-leafed pondweed = assay: Test Example 1: herbicidal activity, application before weed generation under submerged conditions (Table 16, symbol C); type: in vivo, oval-leafed pondweed (Monochoria vaginalis); settings: amount of applied herbicide 320 g/ha
Summary of the method: as §2

persian speedwell [10] = assay: Test Example 5: herbicidal effect by foliage application, plastic box (Table 20, symbol R); type: in vivo, Persian speedwell (Veronica persica); settings: 320 g/ha, foliage application after 14-day growth, evaluated three weeks after application
Summary of the method: as §1

persian speedwell [11] = assay: Test Example 4: herbicidal effect by soil treatment (Table 19, symbol R); type: in vivo, Persian speedwell (Veronica persica); settings: amount of applied herbicide 320 g/ha
Summary of the method: as §3

Italian ryegrass [12] = assay: Test Example 5: herbicidal effect by foliage application, plastic box (Table 20, symbol K); type: in vivo, Italian ryegrass (Lolium multiflorum); settings: 320 g/ha, foliage application after 14-day growth, evaluated three weeks after application
Summary of the method: as §1

southern crabgrass [13] = assay: Test Example 4: herbicidal effect by soil treatment (Table 19, symbol F); type: in vivo, southern crabgrass (Digitaria ciliaris); settings: amount of applied herbicide 320 g/ha
Summary of the method: as §3

velvetleaf [14] = assay: Test Example 4: herbicidal effect by soil treatment (Table 19, symbol M); type: in vivo, velvetleaf (Abutilon theophrasti); settings: amount of applied herbicide 320 g/ha
Summary of the method: as §3

chickweed [15] = assay: Test Example 5: herbicidal effect by foliage application, plastic box (Table 20, symbol P); type: in vivo, common chickweed (Stellaria media); settings: 320 g/ha, foliage application after 14-day growth, evaluated three weeks after application
Summary of the method: as §1

blackgrass [16] = assay: Test Example 4: herbicidal effect by soil treatment (Table 19, symbol J); type: in vivo, blackgrass (Alopecurus myosuroides); settings: amount of applied herbicide 320 g/ha
Summary of the method: as §3

redroot pigweed [17] = assay: Test Example 4: herbicidal effect by soil treatment (Table 19, symbol N); type: in vivo, redroot pigweed (Amaranthus retroflexus); settings: amount of applied herbicide 320 g/ha
Summary of the method: as §3

chickweed [18] = assay: Test Example 4: herbicidal effect by soil treatment (Table 19, symbol P); type: in vivo, common chickweed (Stellaria media); settings: amount of applied herbicide 320 g/ha
Summary of the method: as §3

barnyard grass [19] = assay: Test Example 4: herbicidal effect by soil treatment (Table 19, symbol H); type: in vivo, barnyard grass (Echinochloa crus-galli); settings: amount of applied herbicide 320 g/ha
Summary of the method: as §3

windgrass [20] = assay: Test Example 4: herbicidal effect by soil treatment (Table 19, symbol L); type: in vivo, windgrass (Apera spica-venti); settings: amount of applied herbicide 320 g/ha
Summary of the method: as §3

velvetleaf [21] = assay: Test Example 5: herbicidal effect by foliage application, plastic box (Table 20, symbol M); type: in vivo, velvetleaf (Abutilon theophrasti); settings: 320 g/ha, foliage application after 14-day growth, evaluated three weeks after application
Summary of the method: as §1

green foxtail [22] = assay: Test Example 4: herbicidal effect by soil treatment (Table 19, symbol G); type: in vivo, green foxtail (Setaria viridis); settings: amount of applied herbicide 320 g/ha
Summary of the method: as §3

wild oat [23] = assay: Test Example 4: herbicidal effect by soil treatment (Table 19, symbol I); type: in vivo, wild oat (Avena fatua); settings: amount of applied herbicide 320 g/ha
Summary of the method: as §3

Japanese bulrush = assay: Test Example 1: herbicidal activity, application before weed generation under submerged conditions (Table 16, symbol B); type: in vivo, Japanese bulrush (Schoenoplectus juncoides); settings: amount of applied herbicide 320 g/ha
Summary of the method: as §2

false cleavers = assay: Test Example 4: herbicidal effect by soil treatment (Table 19, symbol Q); type: in vivo, false cleavers (Galium spurium); settings: amount of applied herbicide 320 g/ha
Summary of the method: as §3

Italian ryegrass [24] = assay: Test Example 4: herbicidal effect by soil treatment (Table 19, symbol K); type: in vivo, Italian ryegrass (Lolium multiflorum); settings: amount of applied herbicide 320 g/ha
Summary of the method: as §3

SMILES: Cc1nn(C)c(=O)c(-c2c(-c3ccc(C(C)C)cc3)sc3c(F)cccc23)c1O [4-042]
- herbicidal effect on N: redroot pigweed (evaluation grade 0-5) (redroot pigweed [1]): 5 (Herbicidal rate of 90% or more (almost completely withered))
- herbicidal effect on L: windgrass (evaluation grade 0-5) (windgrass [2]): 0 (Herbicidal rate of 5% or less (almost no effect))
- Herbicidal effect, A: late watergrass (late watergrass): 3 (Herbicidal rate of 40% or more and less than 70%)
- herbicidal effect on O: lambsquarters (evaluation grade 0-5) (lambsquarters [3]): 4 (Herbicidal rate of 70% or more and less than 90%)
- herbicidal effect on I: wild oat (evaluation grade 0-5) (wild oat [4]): 0 (Herbicidal rate of 5% or less (almost no effect))
- herbicidal effect on J: blackgrass (evaluation grade 0-5) (blackgrass [5]): 0 (Herbicidal rate of 5% or less (almost no effect))
- herbicidal effect on F: southern crabgrass (evaluation grade 0-5) (southern crabgrass [6]): 1 (Herbicidal rate of 5% or more and less than 20%)
- herbicidal effect on H: barnyard grass (evaluation grade 0-5) (barnyard grass [7]): 5 (Herbicidal rate of 90% or more (almost completely withered))
- herbicidal effect on G: green foxtail (evaluation grade 0-5) (green foxtail [8]): 4 (Herbicidal rate of 70% or more and less than 90%)
- Herbicidal effect by soil treatment, O: lambsquarters (lambsquarters [9]): 3 (Herbicidal rate of 40% or more and less than 70%)
- Herbicidal effect, C: oval-leafed pondweed (oval-leafed pondweed): 0 (Herbicidal rate of 5% or less (almost no effect))
- herbicidal effect on R: persian speedwell (evaluation grade 0-5) (persian speedwell [10]): 5 (Herbicidal rate of 90% or more (almost completely withered))
- Herbicidal effect by soil treatment, R: persian speedwell (persian speedwell [11]): 3 (Herbicidal rate of 40% or more and less than 70%)
- herbicidal effect on K: Italian ryegrass (evaluation grade 0-5) (Italian ryegrass [12]): 3 (Herbicidal rate of 40% or more and less than 70%)
- Herbicidal effect by soil treatment, F: southern crabgrass (southern crabgrass [13]): 0 (Herbicidal rate of 5% or less (almost no effect))
- Herbicidal effect by soil treatment, M: velvetleaf (velvetleaf [14]): 1 (Herbicidal rate of 5% or more and less than 20%)
- herbicidal effect on P: chickweed (evaluation grade 0-5) (chickweed [15]): 5 (Herbicidal rate of 90% or more (almost completely withered))
- Herbicidal effect by soil treatment, J: blackgrass (blackgrass [16]): 0 (Herbicidal rate of 5% or less (almost no effect))
- Herbicidal effect by soil treatment, N: redroot pigweed (redroot pigweed [17]): 4 (Herbicidal rate of 70% or more and less than 90%)
- Herbicidal effect by soil treatment, P: chickweed (chickweed [18]): 5 (Herbicidal rate of 90% or more (almost completely withered))
- Herbicidal effect by soil treatment, H: barnyard grass (barnyard grass [19]): 1 (Herbicidal rate of 5% or more and less than 20%)
- Herbicidal effect by soil treatment, L: windgrass (windgrass [20]): 0 (Herbicidal rate of 5% or less (almost no effect))
- herbicidal effect on M: velvetleaf (evaluation grade 0-5) (velvetleaf [21]): 5 (Herbicidal rate of 90% or more (almost completely withered))
- Herbicidal effect by soil treatment, G: green foxtail (green foxtail [22]): 0 (Herbicidal rate of 5% or less (almost no effect))
- Herbicidal effect by soil treatment, I: wild oat (wild oat [23]): 0 (Herbicidal rate of 5% or less (almost no effect))
- Herbicidal effect, B: Japanese bulrush (Japanese bulrush): 3 (Herbicidal rate of 40% or more and less than 70%)
- Herbicidal effect by soil treatment, Q: false cleavers (false cleavers): 0 (Herbicidal rate of 5% or less (almost no effect))
- Herbicidal effect by soil treatment, K: Italian ryegrass (Italian ryegrass [24]): 0 (Herbicidal rate of 5% or less (almost no effect))
